In ChEMBL document CHEMBL3621136, “Design, synthesis, and biological and docking studies of novel epipodophyllotoxinchalcone hybrids as potential anticancer agents” (Medchemcomm, 2015):

Tests used:
Format in all cases: functional, cell-based
HeLa = assay: Cytotoxicity against human HeLa cells assessed as growth inhibition after 48 hrs by SRB assay
COLO 205 = assay: Cytotoxicity against human COLO205 cells assessed as growth inhibition after 48 hrs by SRB assay; details: COLO 205, 48 h
SW-620 = assay: Cytotoxicity against human SW620 cells assessed as growth inhibition after 48 hrs by SRB assay; details: SW-620, 48 h
SK-N-SH = assay: Cytotoxicity against human SK-N-SH cells assessed as growth inhibition after 48 hrs by SRB assay
HCT-15 = assay: Cytotoxicity against human HCT15 cells assessed as growth inhibition after 48 hrs by SRB assay; details: HCT-15, 48 h
DU-145 = assay: Cytotoxicity against human DU145 cells assessed as growth inhibition after 48 hrs by SRB assay; details: DU-145, 48 h

SMILES | IC50 (HeLa) | IC50 (COLO 205) | IC50 (SW-620) | IC50 (SK-N-SH) | IC50 (HCT-15) | IC50 (DU-145)
COc1cc([C@@H]2c3cc4c(cc3[C@@H](n3cc(COc5ccc(C(=O)/C=C/c6ccc(F)cc6)cc5)nn3)[C@H]3COC(=O)[C@H]23)OCO4)cc(OC)c1O | 4.5 µM | 12.5 µM | 0.35 µM | 0.39 µM | 12.4 µM | 12 µM
COc1cc([C@@H]2c3cc4c(cc3[C@@H](n3cc(COc5ccc(/C=C/C(=O)c6ccccc6)cc5)nn3)[C@H]3COC(=O)[C@H]23)OCO4)cc(OC)c1OC | 19.1 µM | 29.3 µM | 9.2 µM | 25.6 µM | 15.3 µM | 30 µM
COc1ccc(/C=C/C(=O)c2ccc(OCc3cn([C@@H]4c5cc6c(cc5[C@@H](c5cc(OC)c(OC)c(OC)c5)[C@H]5C(=O)OC[C@@H]54)OCO6)nn3)cc2)cc1 | – | 12.3 µM | 11.2 µM | 7.32 µM | 6.12 µM | 10.2 µM
COc1cc([C@@H]2c3cc4c(cc3[C@@H](n3cc(COc5ccc(/C=C/C(C)=O)cc5)nn3)[C@H]3COC(=O)[C@H]23)OCO4)cc(OC)c1O | 13.1 µM | – | 7.5 µM | 10.3 µM | 6.82 µM | 12 µM
COc1cc([C@@H]2c3cc4c(cc3[C@@H](n3cc(COc5ccc(C(=O)/C=C/c6ccc(F)cc6)cc5)nn3)[C@H]3COC(=O)[C@H]23)OCO4)cc(OC)c1OC | – | 13.2 µM | 2.4 µM | 3.4 µM | 12 µM | 6.5 µM
COc1cc([C@@H]2c3cc4c(cc3[C@@H](n3cc(COc5ccc(C(=O)/C=C/c6ccccc6)cc5)nn3)[C@H]3COC(=O)[C@H]23)OCO4)cc(OC)c1O | 5.9 µM | 12.3 µM | 0.64 µM | 0.66 µM | 9.5 µM | 12 µM
COc1cc([C@@H]2c3cc4c(cc3[C@@H](n3cc(COc5ccc(C(=O)/C=C/c6cccc(C)c6)cc5)nn3)[C@H]3COC(=O)[C@H]23)OCO4)cc(OC)c1O | 9.32 µM | 15.4 µM | 11.5 µM | 13.5 µM | 12.2 µM | 20.5 µM
COc1ccc(/C=C/C(=O)c2ccc(OCc3cn([C@@H]4c5cc6c(cc5[C@@H](c5cc(OC)c(O)c(OC)c5)[C@H]5C(=O)OC[C@@H]54)OCO6)nn3)cc2)cc1 | 6.8 µM | – | 10.3 µM | 15.6 µM | 7.45 µM | 12.5 µM
COc1cc([C@@H]2c3cc4c(cc3[C@@H](n3cc(COc5ccc(C(C)=O)cc5)nn3)[C@H]3COC(=O)[C@H]23)OCO4)cc(OC)c1OC | 18.5 µM | 18.8 µM | 14.6 µM | 15.6 µM | 13.5 µM | 13.6 µM
COc1cc([C@@H]2c3cc4c(cc3[C@@H](O[C@@H]3O[C@@H]5CO[C@@H](C)O[C@H]5[C@H](O)[C@H]3O)[C@H]3COC(=O)[C@H]23)OCO4)cc(OC)c1O [ETOPOSIDE] | 10.4 µM | 14.2 µM | 13.2 µM | 9.03 µM | 12.2 µM | 16.4 µM
COc1cc([C@@H]2c3cc4c(cc3[C@@H](n3cc(COc5ccc(C(=O)/C=C/c6cccc(C)c6)cc5)nn3)[C@H]3COC(=O)[C@H]23)OCO4)cc(OC)c1OC | 12.2 µM | 8.23 µM | 6.53 µM | 7.13 µM | – | 9.36 µM
COc1cc([C@@H]2c3cc4c(cc3[C@@H](n3cc(COc5ccc(C(=O)/C=C/c6cccc(F)c6)cc5)nn3)[C@H]3COC(=O)[C@H]23)OCO4)cc(OC)c1O | 6.4 µM | 5.15 µM | 5.36 µM | 4.5 µM | – | 7.4 µM
COc1cc([C@@H]2c3cc4c(cc3[C@@H](n3cc(COc5ccc(/C=C/C(=O)c6ccccc6)cc5)nn3)[C@H]3COC(=O)[C@H]23)OCO4)cc(OC)c1O | 9.18 µM | – | 4.4 µM | 8.3 µM | 6.75 µM | 5.45 µM
COc1cc([C@@H]2c3cc4c(cc3[C@@H](n3cc(COc5ccc(C(=O)/C=C/c6ccccc6)cc5)nn3)[C@H]3COC(=O)[C@H]23)OCO4)cc(OC)c1OC | 5.34 µM | 9.12 µM | 2.02 µM | 4.13 µM | 12.8 µM | 30.2 µM
COc1cc(/C=C/C(C)=O)ccc1OCc1cn([C@@H]2c3cc4c(cc3[C@@H](c3cc(OC)c(O)c(OC)c3)[C@H]3C(=O)OC[C@@H]32)OCO4)nn1 | 5 µM | 18.2 µM | 5.66 µM | 5.45 µM | 12.4 µM | 6.5 µM
COc1cc([C@@H]2c3cc4c(cc3[C@@H](n3cc(COc5ccc(/C=C/C(C)=O)cc5)nn3)[C@H]3COC(=O)[C@H]23)OCO4)cc(OC)c1OC | – | 7.6 µM | 10.2 µM | 14.4 µM | 16.3 µM | 11.3 µM
COc1cc(/C=C/C(C)=O)ccc1OCc1cn([C@@H]2c3cc4c(cc3[C@@H](c3cc(OC)c(OC)c(OC)c3)[C@H]3C(=O)OC[C@@H]32)OCO4)nn1 | 3.4 µM | 8.98 µM | 3.41 µM | 10 µM | 10.4 µM | –
COc1cc([C@@H]2c3cc4c(cc3[C@@H](n3cc(COc5ccc(C(=O)/C=C/c6ccccc6F)cc5)nn3)[C@H]3COC(=O)[C@H]23)OCO4)cc(OC)c1OC | 17.2 µM | – | 8.12 µM | 6.73 µM | 12.9 µM | 20.2 µM
COc1cc([C@@H]2c3cc4c(cc3[C@@H](n3cc(COc5ccc(C(=O)/C=C/c6cccc(F)c6)cc5)nn3)[C@H]3COC(=O)[C@H]23)OCO4)cc(OC)c1OC | 14.2 µM | 7.32 µM | 5.21 µM | 12.4 µM | 15.6 µM | 13.3 µM
COc1cc([C@@H]2c3cc4c(cc3[C@@H](n3cc(COc5ccc(C(C)=O)cc5)nn3)[C@H]3COC(=O)[C@H]23)OCO4)cc(OC)c1O | 18.9 µM | 14.8 µM | 11.6 µM | 11.6 µM | 12 µM | 16.6 µM
COc1cc([C@@H]2c3cc4c(cc3[C@@H](n3cc(COc5ccc(C(=O)/C=C/c6ccccc6F)cc5)nn3)[C@H]3COC(=O)[C@H]23)OCO4)cc(OC)c1O | – | 12.3 µM | 12.6 µM | 7.4 µM | 15.2 µM | 9.34 µM
